In PMC8270270, “Rosin Derivatives as a Platform for the Antiviral Drug Design” (Molecules, 2021):
Values after ≈ are worked out from the molar mass of the structure shown. Read-outs that look alike come from different tables or passages of the source.

What was measured:
Bacillus subtilis = experiment: Disco-diffuse method, antibacterial activity; format: cell-based; details: for zone of inhibition at 1000 µg/mL / zone of inhibition at 5000 µg/mL / zone of inhibition at 10000 µg/mL / zone of inhibition at 25000 µg/mL / zone of inhibition at 50000 µg/mL / MIC: Bacillus subtilis; for zone of inhibition at 1000 µg/mL: compound concentration 1 mg/mL; for zone of inhibition at 1000 µg/mL / zone of inhibition at 5000 µg/mL / zone of inhibition at 10000 µg/mL / zone of inhibition at 25000 µg/mL / zone of inhibition at 50000 µg/mL: read-out: The Zone of Growth Inhibition; for zone of inhibition at 5000 µg/mL: compound concentration 5 mg/mL; for zone of inhibition at 10000 µg/mL: compound concentration 10 mg/mL; for zone of inhibition at 25000 µg/mL: compound concentration 25 mg/mL; for MIC: from disc diffusion, read-out: minimum inhibitory concentration
Protocol: (§1) The determination of compounds (I, IV, VI–XI) effect concerning microorganisms was carried out using test strains of Escherichia coli, Bacillus subtilis, and Candida tropicalis. They are not only natural inhabitants of natural biocenoses but also a part of human microbiocenosis. Used microorganisms of bacteria were selected as representatives of the Gram-positive and Gram-negative human microbiota. The antibacterial activity of compounds (I, IV, VI–XI) was studied by the disco-diffuse method. The strain culture was transferred sterile from the mown agar into test tubes with 5 mL of nutrient medium to obtain a “night culture” 12–15 h before the experiment. Beef-extract agar (BEA) was used as a nutrient medium for the development of bacterial cells, and Sabouraud’s medium was used for yeast. Bacterial cultures were incubated in a thermostat at 37 °C, and yeast cultures at 32 °C. The melted BEA was poured sterile into Petri dishes (diameter 90 mm) and evenly distributed over the bottom of the dish, covered with a lid, and left on the table until it solidified completely. Next, the dishes with BEA were inoculated with a “lawn” by introducing a strain culture (suspension titer −1–2 × 10^8 CFU/mL) in an amount of 500 µL and evenly distributing it with a sterile spatula. The dishes were left for 60–90 min to dry the culture. Compounds (I, IV, VI–XI) were previously dissolved, and the sequential dilutions were applied to disks. Dimethyl sulfoxide (DMSO) was used as a solvent for the DAA. Water was used as a solvent for their potassium salts. […] This disk was impregnated with a solution of the test compound amounting to 100 μL and incubated in the dark for 24 h at 37 °C (Escherichia coli and Bacillus subtilis) and 48 h at 32 °C (Candida tropicalis). The solution diffuses, forming a concentration gradient of the test compound around the disc. After the incubation period, the inhibition zone or stimulation of microbial growth around the disk was measured in the experimental and control samples. A conclusion was made about the degree (bactericidal) toxicity of compounds. Solvent-treated disks (DMSO) were used as controls. The experiments were performed three times.

Escherichia coli = experiment: Disco-diffuse method, antibacterial activity; format: cell-based; details: for zone of inhibition at 1000 µg/mL / zone of inhibition at 5000 µg/mL / zone of inhibition at 10000 µg/mL / zone of inhibition at 25000 µg/mL / zone of inhibition at 50000 µg/mL / MIC: Escherichia coli; for zone of inhibition at 1000 µg/mL: compound concentration 1 mg/mL; for zone of inhibition at 1000 µg/mL / zone of inhibition at 5000 µg/mL / zone of inhibition at 10000 µg/mL / zone of inhibition at 25000 µg/mL / zone of inhibition at 50000 µg/mL: read-out: The Zone of Growth Inhibition; for zone of inhibition at 5000 µg/mL: compound concentration 5 mg/mL; for zone of inhibition at 10000 µg/mL: compound concentration 10 mg/mL; for zone of inhibition at 25000 µg/mL: compound concentration 25 mg/mL; for MIC: from disc diffusion, read-out: minimum inhibitory concentration
Protocol: as §1

Candida tropicalis = experiment: Disco-diffuse method, fungicidal activity; format: cell-based; details: for zone of inhibition at 1000 µg/mL / zone of inhibition at 5000 µg/mL / zone of inhibition at 10000 µg/mL / zone of inhibition at 25000 µg/mL / zone of inhibition at 50000 µg/mL: Candida tropicalis, 48 h at 32 °C, read-out: The Zone of Growth Inhibition; for zone of inhibition at 1000 µg/mL: compound concentration 1 mg/mL; for zone of inhibition at 5000 µg/mL: compound concentration 5 mg/mL; for zone of inhibition at 10000 µg/mL: compound concentration 10 mg/mL; for zone of inhibition at 25000 µg/mL: compound concentration 25 mg/mL; for zone of inhibition at 50000 µg/mL: compound concentration 50 mg/mL
Protocol: as §1

A549 cell culture = experiment: Cytotoxicity, colorimetric MTT assay; format: cell-based, human; details: for Cytotoxicity (in words): A549, MTT assay; for IC50: Homo sapiens, read-out: Determined IC50
Protocol: The cytotoxicity of compounds (I–V) was assessed on A549 cell culture using a colorimetric MTT assay. A549 cells were incubated for 24 h at 37 °C, 5% CO2 with solutions of the studied compounds at various concentrations. Next, the cell monolayer was washed, and MTT solution was added in a volume of 0.1 mL at a concentration of […]. After 1 h of MTT contact with the cells, the wells were washed, and the formed formazan crystals were dissolved in 0.1 mL of DMSO. The results were recorded at 560 nm on a CLARIOstar Plus plate photometer (BMG LABTECH, Ortenberg, Germany). The IC50 was calculated using GraphPad Prism 6.0.

[1] = tested on: A/California/07/09 ((A)H1N1pdm09) viral strain; format: cell-based, influenza virus; details: working concentration
[2] = compound concentration 50 mg/mL, 24 h at 37 °C
[3] = at the working concentrations used to assess antiviral activity

SMILES | zone of inhibition at 1000 µg/mL (Bacillus subtilis; 24 h at 37 °C) [mm] | zone of inhibition at 5000 µg/mL (Bacillus subtilis; 24 h at 37 °C) [mm] | zone of inhibition at 10000 µg/mL (Bacillus subtilis; 24 h at 37 °C) [mm] | zone of inhibition at 25000 µg/mL (Bacillus subtilis; 24 h at 37 °C) [mm] | zone of inhibition at 50000 µg/mL (Bacillus subtilis; [2]) [mm] | MIC (Bacillus subtilis; 1-50 mg/mL) [µg/mL] | zone of inhibition at 1000 µg/mL (Escherichia coli; 24 h at 37 °C) [mm] | zone of inhibition at 5000 µg/mL (Escherichia coli; 24 h at 37 °C) [mm] | zone of inhibition at 10000 µg/mL (Escherichia coli; 24 h at 37 °C) [mm] | zone of inhibition at 25000 µg/mL (Escherichia coli; 24 h at 37 °C) [mm] | zone of inhibition at 50000 µg/mL (Escherichia coli; [2]) [mm] | MIC (Escherichia coli; 1-50 mg/mL) [µg/mL] | zone of inhibition at 1000 µg/mL (Candida tropicalis) [mm] | zone of inhibition at 5000 µg/mL (Candida tropicalis) [mm] | zone of inhibition at 10000 µg/mL (Candida tropicalis) [mm] | zone of inhibition at 25000 µg/mL (Candida tropicalis) [mm] | zone of inhibition at 50000 µg/mL (Candida tropicalis) [mm] | Cytotoxicity (in words) (A549 cell culture) | also measured
CC(C)C1=CC2=CC[C@@H]3[C@](C)(CCC[C@@]3(C)C(=O)O)[C@H]2CC1 [IX, Abietic acid] | 1 ± 0.15 | 2.1 ± 0.03 | 2 ± 0.05 | 4 ± 0.1 | 5 ± 1.04 | 1000 (≈ 3310 µM) | 0 | 1 ± 0.1 | 1 ± 0.1 | 2 ± 0.24 | 3 ± 0.14 | 5000 (≈ 16500 µM) | 0 | 0 | 0 | 1 ± 0.11 | 1 ± 0.15 |  | 
CC(C)c1cc2c(cc1S(=O)(=O)O)C1(C)CCCC(C)(C(=O)O)C1CC2 (stereo not drawn) [I, 12-sulfodehydroabietic acid] | 0 | 0 | 0 | 0 | 0 |  | 0 | 0 | 0 | 0 | 0 |  | 0 | 0 | 0 | 0 | 0 | weak toxicity | IC50 (A549 cell culture; A549, 24 h incubation, MTT assay): > 518 µg/mL; Cell viability (in words) (A549 cell culture; [3]): did not cause a significant decrease in cell viability; Antibacterial activity (in words) (Bacillus subtilis; 1-50 mg/mL): did not show either antibacterial activity or fungicidal activity; Antibacterial activity (in words) (Escherichia coli; 1-50 mg/mL): did not show either antibacterial activity or fungicidal activity; Fungicidal activity (in words) (Candida tropicalis; 1-50 mg/mL): did not show either antibacterial activity or fungicidal activity; Antiviral activity (in words) ([1]; A549, in vitro): did not show antiviral activity
CC(C)c1cc2c(cc1Br)C1(C)CCCC(C)(C(=O)O)C1CC2 (stereo not drawn) [X, 12-bromodehydroabietic acid] | 3.1 ± 0.25 | 9.5 ± 0.05 | 9.7 ± 0.04 | 10.5 ± 0.03 |  | 1000 (≈ 2640 µM) | 0.9 ± 0.1 | 2 ± 0.07 | 7.6 ± 0.03 | 4.6 ± 0.05 |  | 1000 (≈ 2640 µM) | 0 | 0 | 0 | 1.1 ± 0.24 | 1.9 ± 0.16 |  | The Zone of Growth Inhibition (Bacillus subtilis; [2]): Does not diff; The Zone of Growth Inhibition (Escherichia coli; [2]): Does not diff
CC(C)c1cc2c(cc1Br)C1(C)CCCC(C)(C(=O)[O-])C1CC2.[K+] (stereo not drawn) [III, Potassium 12-bromodehydroabietate] |  |  |  |  |  |  |  |  |  |  |  |  |  |  |  |  |  | highest cytotoxicity | IC50 (A549 cell culture; A549, 24 h): 140 µg/mL; Decrease in viable cells (A549 cell culture; [3]): 50%; Content of viral protein NP inside the cells (ELISA) ([1]; A549, therapeutic scheme, 24 h after stimulation): decrease in the content of the viral protein NP inside the cells
